Consider five molecules from patent US4204003A, “N-(2-Aminocyclopentyl)-N-alkanoylanilides as CNS anti-depressants” (The Upjohn Company, priority 1978, dated 1980).

For data set [1] the following is noted: literature (J. Pharmaceutical Sciences, December 1974); cited from earlier work.
Another data set relates to yohimbine toxicity. The experiment in a line: standard yohimbine toxicity potentiation test. The format is in vivo. As to conditions: ip; intraperitoneally.
For a further data set, the system named is oxotremorine hypothermia. The experiment in a line: standard oxotremorine hypothermia antagonism test. Format: in vivo. As to conditions: ip; intraperitoneally.
The conditions of data set [2]: literature (J. Pharmaceutical Sciences, December 1974); cited from earlier work. The source holds these as a separate data set.
Data set [3] can be described thus: rat liver microsome incubation system (metabolism). The format is in vitro ADME. The note with it: from the corresponding N-[2-(dimethylamino)cyclopentyl]propionanilide compound.

For `ON(c1ccccc1)C1CCCCC1N1CCCC1` (stereo not shown) [N-[2-(N-pyrrolidinyl)cyclohexyl]-N-phenylhydroxylamine], in data set [1], the CNS properties result is given as “do not have useful CNS properties”.

For `CCC(=O)N(c1ccc(Cl)c(Cl)c1)[C@@H]1CCC[C@H]1NC` (relative stereo) [Trans-3,4-dichloro-N-[2-(N-methylamino)-cyclopentyl]propionanilide], the ED50 in the data set on yohimbine toxicity and in the data set on oxotremorine hypothermia was < 1 mg/kg each time. Consider `COc1ccc(C(O)C2CCCCC2N2CCCCC2)cc1` (stereo not shown) [[2-(N-piperidinylcyclohexyl]-(4-methoxyphenyl)methanol], for which the diuretic activity result in data set [2] was “Diuretic activity is alleged”. Consider `CCC(=O)N(c1ccc(Cl)c(Cl)c1)[C@@H]1CCC[C@H]1N` (relative stereo) [Trans-3,4-dichloro-N-(2-aminocyclopentyl)-propionanilide], for which the ED50 in the data set on yohimbine toxicity and in the data set with oxotremorine hypothermia was < 1 mg/kg in each case. As to “2-(N-methylamino)cyclopentylpropionanilide”, the “metabolite formed in rat liver microsome incubation” value in data set [3] is “is a metabolite of the corresponding N-[2-(dimethylamino)cyclopentyl]propionanilide compound”.
